Experiments:
Format in all cases: cell-based, human
hiPSC-CM monolayers [1] = assay: 96 well optical mapping of intracellular calcium flux in hiPSC-CM monolayers under IKr blockade; conditions: 100 nmol L^-1 E4031
Experimental: Briefly, monolayers were loaded with the intracellular Ca^2+ indicator, rhod-2AM (10 μmol L-1, Life Technologies). After a 30 minute incubation time, the cells were washed in Hanks balanced salt solution (HBSS, Life Technologies) for an additional 30 minutes before optical mapping recordings. […] Movies were filtered in both the time and space domain and conduction velocity (CV) was measured as described previously (Hou L, et al., Circulation Research. 2010;107:1503-1511, herein incorporated by reference in its entirety).
Small glass coverslips to fit into a 96 well format dish are not readily available so here plastic was used as the rigid comparator for PDMS.

hiPSC-CM monolayers [2] = assay: Hypertrophic growth and monolayer formation of hiPSC-CMs on glass or PDMS coverslips with FAK inhibitor
Experimental: In a second set of experiments hiPSC-CM monolayers were fixed for immunocytochemistry following optical mapping recordings of impulse propagation as recently described (Lee P, et al., Circulation Research. 2012;110:1556-1563, herein incorporated by reference in its entirety). Briefly, cell monolayers were washed with PBS and then fixed with 4% paraformaldehyde for 10 minutes and rinsed twice before blocking with 10% normal donkey serum in PBS plus 0.1% Triton X-100 (Sigma) for 1.5 hours at room temperature. Primary antibodies were used to detect α-actinin (1:500, Sigma) in the cardiac sarcomeres and Cx43 (1:100, Millipore) and N-cadherin (1:200, BD Bioscience) at the intercellular junctions. The primary antibodies were added to 5% donkey serum in PBS plus 0.1% Triton X-100 and incubated overnight at 4° C. Subsequently, cells were washed three times in PBS plus 0.1% TRITON X-100. […] Protein localization was examined by laser scanning confocal microscopy with sequential laser firing for multiple fluorophores (Nikon AIR, Melville, N.Y.). iPSC-CM cross sectional area was calculated in NIS Elements software using N-cadherin staining of the cell membranes.
Integrins are transmembrane heterodimeric receptors essential for providing cell-extracellular matrix adhesion, cellular structural organization and transduction of mechanical signals from the extracellular matrix into biochemical signals in cardiomyocytes (Ross R S, et al., Circulation Research. 2001;88:1112-1119; Israeli-Rosenberg S, et al., The FASEB Journal. 2015;29:374-384; Israeli-Rosenberg S, et al., Circulation Research. 2014;114:572-586). β1 integrins are abundant in the adult heart and participate in the hypertophic response in rodent ventricular myoyctes (Ross et al., Circulation Research. […] Finally, the role of FAK activation in the hypertrophic response of hiPSC-CMs to the soft cell culture environment on PDMS was determined (FIG. 8D and FIG. 14).

hiPSC-CMs (iCell) = assay: Western blotting for mature myofilament proteins (cTnI, β-MyHC) in hiPSC-CMs cultured with FAK inhibitor
[3] = 10 μmol L^-1 FAK inhibitor-14, cultured on PDMS

Row | Compound | CaTD80 post E4031 (hiPSC-CM monolayers [1]; PDMS bottom dishes, n=5, pre 579.8±13.9 ms) | effect on beat frequency and CaTD80 (in words) (hiPSC-CM monolayers [1]; PDMS bottom well) | reduction of spontaneous beating frequency (hiPSC-CM monolayers [1]; monolayers on matrigel coated PDMS, n=5) | reduction of spontaneous beating frequency (hiPSC-CM monolayers [1]; monolayers on rigid plastic (matrigel coated), n=8) | CaTD80 post E4031 (hiPSC-CM monolayers [1]; plastic bottom dishes, n=8, pre 605.9±24.3 ms) | effect on spontaneous beating frequency and CaTD80 (in words) (hiPSC-CM monolayers [1]; rigid plastic bottom dishes (matrigel coated)) | monolayer formation and hiPSC-CM expansion in culture (hiPSC-CM monolayers [2]; 100 μmol L^-1, both Glass and PDMS) | hypertrophic growth of hiPSC-CMs (hiPSC-CM monolayers [2]; PDMS coverslips) | effect on hiPSC-CMs grown on glass coverslips (hiPSC-CM monolayers [2]; glass coverslips, effect only at 100 μmol L^-1) | cTnI expression (hiPSC-CMs (iCell); [3]) | β-MyHC expression (hiPSC-CMs (iCell); [3]) | expression of mature myofilament protein isoforms including cTnI and β-MyHC (hiPSC-CMs (iCell); FIG. 8C legend)
1 | Cc1cccc(CCN2CCC(C(=O)c3ccc(NS(C)(=O)=O)cc3)CC2)n1 [E4031] | 780.1 ± 74.1 ms | more modest effect | ~20% | ~50% | 1873.8 ± 278.9 ms | very significant impact |  |  |  |  |  | 
2 | Nc1cc(N)c(N)cc1N [FAK inhibitor-14] |  |  |  |  |  |  | prevented monolayer formation and hiPSC-CM expansion in culture | prevented hypertrophic growth | only affected at very high dose | failed to express cTnI | expressed less β-MyHC | prevents expression

Reference: patent publication US20150329825A1, “COMPOSITIONS AND METHODS EMPLOYING STEM CELL-DERIVED CARDIOMYOCYTES” (THE REGENTS OF THE UNIVERSITY OF MICHIGAN, priority 2014, published 2015)
